Experimental data taken from paper PMC10023787, “Trio-pharmacophore DNA-encoded chemical library for simultaneous selection of fragments and linkers” (Nature Communications, 2023).
Entries after “also recorded” stand apart in the source; their conditions may differ. Read-outs that look alike come from different tables or passages of the source.

Legend:
[1] = molecular target: T1, MMP-2 (Homo sapiens, UniProt P08253); test: MMP-2 inhibition assay (fluorogenic peptide substrate); assay type: biochemical
T1 construct: purchased Sino Biological 10082-HNAH
T1 sequence (P08253 110-660): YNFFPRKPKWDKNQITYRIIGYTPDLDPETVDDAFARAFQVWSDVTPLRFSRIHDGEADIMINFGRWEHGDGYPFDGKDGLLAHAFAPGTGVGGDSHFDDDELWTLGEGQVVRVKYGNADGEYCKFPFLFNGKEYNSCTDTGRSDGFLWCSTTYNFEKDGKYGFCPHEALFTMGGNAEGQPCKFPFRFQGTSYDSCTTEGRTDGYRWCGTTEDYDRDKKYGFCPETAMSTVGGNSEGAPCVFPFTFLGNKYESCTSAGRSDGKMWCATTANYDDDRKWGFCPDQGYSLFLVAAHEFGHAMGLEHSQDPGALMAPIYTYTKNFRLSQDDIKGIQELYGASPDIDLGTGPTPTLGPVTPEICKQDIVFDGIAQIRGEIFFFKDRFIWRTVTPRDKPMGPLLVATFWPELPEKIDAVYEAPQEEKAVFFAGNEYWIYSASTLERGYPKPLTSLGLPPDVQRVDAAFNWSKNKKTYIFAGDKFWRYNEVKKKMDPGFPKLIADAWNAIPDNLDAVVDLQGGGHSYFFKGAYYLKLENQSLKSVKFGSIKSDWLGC
Method in brief: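 Human proMMP-2 and proMMP-9 were activated with 1 mM APMA for 2 h at 37 °C, then used at 6.5 nM (MMP-2) or 10 nM (MMP-9) final in Tris/NaCl/CaCl2/Brij 35 buffer, pH 7.5. After 30 min preincubation with compound at RT, 25 μM FRET peptide substrate was added and fluorescence (ex 280/em 360 nm) followed for 30 min. IC50 came from logistic fits of Vmax.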

[2] = molecular target: T2, MMP-9 (Homo sapiens, UniProt P14780); test: De novo T-DEL selection against MMP-9, NGS decoding; assay type: binding; conditions: for MMP9 SL-A Count: NGS sequence count of sub-library SL-A building block; for MMP9 SL-A Enrichment Fold: sub-library SL-A building block
T2 construct: purchased Sino Biological 10327-HNAH
T2 sequence (P14780 107-707 limits assumed): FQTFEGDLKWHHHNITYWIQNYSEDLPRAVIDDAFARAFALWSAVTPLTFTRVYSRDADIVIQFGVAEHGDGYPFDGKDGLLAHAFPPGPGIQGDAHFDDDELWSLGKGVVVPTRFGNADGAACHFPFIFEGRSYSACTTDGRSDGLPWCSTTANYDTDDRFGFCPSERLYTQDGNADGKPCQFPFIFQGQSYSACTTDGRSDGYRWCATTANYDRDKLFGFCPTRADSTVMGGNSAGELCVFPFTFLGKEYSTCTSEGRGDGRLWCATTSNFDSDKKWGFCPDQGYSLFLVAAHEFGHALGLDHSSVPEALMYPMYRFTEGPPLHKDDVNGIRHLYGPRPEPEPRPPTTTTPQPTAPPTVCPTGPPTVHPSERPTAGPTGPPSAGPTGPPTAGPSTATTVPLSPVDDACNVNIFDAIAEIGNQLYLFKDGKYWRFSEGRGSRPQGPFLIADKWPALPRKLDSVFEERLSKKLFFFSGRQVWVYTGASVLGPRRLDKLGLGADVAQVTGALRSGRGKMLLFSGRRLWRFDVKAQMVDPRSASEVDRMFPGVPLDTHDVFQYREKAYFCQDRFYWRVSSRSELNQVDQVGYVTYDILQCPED
Text: Matrix metalloproteinases (MMPs) are zinc-dependent endopeptidases capable of degrading and remodeling extracellular matrix components[46],[47]. They are attractive therapeutic targets as high expression levels were detected in various diseases, such as inflammatory diseases, and at different stages of cancers, including metastasis, invasion, and angiogenesis[47]–[53]. As shown in Supplementary Fig. 3c, we performed selections against the two gelatinases (human MMP-2 and human MMP-9) to identify binding fragments for later design and synthesis of small molecule inhibitors. After selection, the three sub-libraries were decoded, and the enrichment was calculated by dividing the post-selection fraction (count/total counts) by the pre-selection fraction (Fig. 4a and Supplementary Fig. 13).
4 µg of MMP-2/MMP-9 was dissolved in 100 µl of selection buffer containing 25 mM Tris-base, 10 mM CaCl2, 150 mM NaCl, 0.05% Tween 20, pH 7.5. 10 µl of 4-Aminophenylmercuric acetate (APMA) (100 mM) solution was added to the protein solution and incubated at 37 °C for 1 h. After activation, the solution was added on top of 40 µl pre-washed Ni-NTA resin and incubated for 30 min on a rotary shaker. The supernatant was discarded, and the resin was washed three times with the selection buffer.
For each independent selection, three sub-libraries were mixed in the selection buffer with a final concentration of 40 nM of each sub-library in 100 µl. The mixture was heat denatured at 90 °C for 1 min and slowly cooled down to allow the formation of the trio-pharmacophore library. The dynamic dual-pharmacophore DEL was provided by DyNAbind GmbH (Merck, DYNA001).
The assembled library was incubated with the protein-bound solid support for 2 h at RT on a rotary shaker. In parallel, selection on bare solid support served as the negative control to exclude promiscuous binders on the resin. After panning, the supernatant was discarded, and the resin was washed three times with 1 ml selection buffer. Finally, 100 µl of 50 mM Tris buffer, pH 7.4 was added to resuspend the resin and the resin was incubated at 95 °C for 5 min to denature the protein, release, and collect the bound library members.
The eluted library members were subjected to sample preparation for NGS. NGS preparation was achieved by two-step PCR. First, the individual selection was indexed using primers containing unique sequences corresponding to each selection. The amplified product was purified from 2% agarose gel. Second, the purified DNA from all selections were pooled in equal amount and subjected to the 2nd PCR step to attach sequences compatible with the NGS flow cell and the sequencing primers. NGS was performed by Novogene UK with Novaseq 6000. Raw data files (fastq files) obtained were decoded using a custom python script and excel. The sequence reads corresponding to each sample was retrieved by searching for the correct index unique to each selection. Then, the code region was extracted from each sequence and assigned to the corresponding identity. The count of each code in each selection sample was obtained by looping through the total reads and counting the occurrence of each code. The enrichment fold of each compound was calculated by first, dividing the count by the total count to get the abundance, second, the abundance after the selection was divided by the abundance of pre-selection to reflect the distribution change of the compound. Next, the enrichment fold was plotted against the count for each member of the library to give the scatter plots as in Fig. 4.

[3] = MMP-2, concentration 1.95 µM, read-out: Mean (MMP-2, Supplementary fig 16)
[4] = MMP-2, concentration 1.95 µM, read-out: Mean (MMP-2 dose-response, Supplementary fig 15)
[5] = MMP-2, concentration 1.95 µM, read-out: Mean (dose-response, Supplementary fig 17)
[6] = de novo T-DEL selection against MMP-9

NCc1c[nH]nn1 [Compound 787]
remaining activity at 0.0156098 µM ([1]; Figure 5a, fragment concentration 0.0156098 µM, read-out: Normalized activity (Mean)): 101% | remaining activity at 0.0780488 µM ([1]; Figure 5a, fragment concentration 0.0780488 µM, read-out: Normalized activity (Mean)): 93.4% | remaining activity at 0.390244 µM ([1]; Figure 5a, fragment concentration 0.390244 µM, read-out: Normalized activity (Mean)): 108% | remaining activity at 1.95122 µM ([1]; Figure 5a, fragment concentration 1.95122 µM, read-out: Normalized activity (Mean)): 92.2% | remaining activity at 9.7561 µM ([1]; Figure 5a, fragment concentration 9.7561 µM, read-out: Normalized activity (Mean)): 105% | remaining activity at 48.7805 µM ([1]; Figure 5a, fragment concentration 48.7805 µM, read-out: Normalized activity (Mean)): 96.9% | remaining activity at 243.902 µM ([1]; Figure 5a, fragment concentration 243.902 µM, read-out: Normalized activity (Mean)): 87.8% | remaining activity at 1219.51 µM ([1]; Figure 5a, fragment concentration 1219.51 µM, read-out: Normalized activity (Mean)): 57.1% | remaining activity at 0.0156 µM ([1]; MMP-2, concentration 0.0156 µM, read-out: Mean (MMP-2, Supplementary fig 16)): 101% | remaining activity at 0.08 µM ([1]; MMP-2, concentration 0.08 µM, read-out: Mean (MMP-2, Supplementary fig 16)): 93.5% | remaining activity at 0.39 µM ([1]; MMP-2, concentration 0.39 µM, read-out: Mean (MMP-2, Supplementary fig 16)): 108% | remaining activity at 1.95 µM [1, 3]: 92.2% | remaining activity at 9.76 µM ([1]; MMP-2, concentration 9.76 µM, read-out: Mean (MMP-2, Supplementary fig 16)): 105% | remaining activity at 48.78 µM ([1]; MMP-2, concentration 48.78 µM, read-out: Mean (MMP-2, Supplementary fig 16)): 96.9% | remaining activity at 243.9 µM ([1]; MMP-2, concentration 243.90 µM, read-out: Mean (MMP-2, Supplementary fig 16)): 87.8% | remaining activity at 0.0156 µM ([1]; MMP-2, concentration 0.0156 µM, read-out: Mean (MMP-2 dose-response, Supplementary fig 15)): 101% | remaining activity at 0.0156 µM ([1]; MMP-2, concentration 0.0156 µM, read-out: Mean (dose-response, Supplementary fig 17)): 101% | remaining activity at 0.08 µM ([1]; MMP-2, concentration 0.08 µM, read-out: Mean (MMP-2 dose-response, Supplementary fig 15)): 93.5% | remaining activity at 0.08 µM ([1]; MMP-2, concentration 0.08 µM, read-out: Mean (dose-response, Supplementary fig 17)): 93.5% | remaining activity at 0.39 µM ([1]; MMP-2, concentration 0.39 µM, read-out: Mean (MMP-2 dose-response, Supplementary fig 15)): 108% | remaining activity at 0.39 µM ([1]; MMP-2, concentration 0.39 µM, read-out: Mean (dose-response, Supplementary fig 17)): 108% | remaining activity at 1.95 µM [1, 4]: 92.2% | remaining activity at 1.95 µM [1, 5]: 92.2% | remaining activity at 9.75 µM ([1]; MMP-2, concentration 9.75 µM, read-out: Mean (MMP-2 dose-response, Supplementary fig 15)): 105% | remaining activity at 9.76 µM ([1]; MMP-2, concentration 9.76 µM, read-out: Mean (dose-response, Supplementary fig 17)): 105% | remaining activity at 48.76 µM ([1]; MMP-2, concentration 48.76 µM, read-out: Mean (MMP-2 dose-response, Supplementary fig 15)): 96.9% | remaining activity at 48.78 µM ([1]; MMP-2, concentration 48.78 µM, read-out: Mean (dose-response, Supplementary fig 17)): 96.9% | remaining activity at 243.8 µM ([1]; MMP-2, concentration 243.80 µM, read-out: Mean (MMP-2 dose-response, Supplementary fig 15)): 87.8% | remaining activity at 243.9 µM ([1]; MMP-2, concentration 243.90 µM, read-out: Mean (dose-response, Supplementary fig 17)): 87.8% | remaining activity at 1219.51 µM ([1]; MMP-2, concentration 1219.51 µM, read-out: Mean (dose-response, Supplementary fig 17)): 57.1% | MMP9 SL-A Count [2, 6]: 949 | MMP9 SL-C Count ([2]; NGS sequence count of sub-library SL-C building block, de novo T-DEL selection against MMP-9): 3684 | MMP9 SL-A Enrichment Fold [2, 6]: 0.9459 | MMP9 SL-C Enrichment Fold ([2]; sub-library SL-C building block, de novo T-DEL selection against MMP-9): 3.649

Cn1c(O)nc2cc(C(=O)O)cnc21 [Compound 826]
remaining activity at 0.0305176 µM ([1]; Figure 5a, fragment concentration 0.0305176 µM, read-out: Normalized activity (Mean)): 105% | remaining activity at 0.12207 µM ([1]; Figure 5a, fragment concentration 0.12207 µM, read-out: Normalized activity (Mean)): 112% | remaining activity at 0.488281 µM ([1]; Figure 5a, fragment concentration 0.488281 µM, read-out: Normalized activity (Mean)): 97.4% | remaining activity at 1.95312 µM ([1]; Figure 5a, fragment concentration 1.95312 µM, read-out: Normalized activity (Mean)): 96.2% | remaining activity at 7.8125 µM ([1]; Figure 5a, fragment concentration 7.8125 µM, read-out: Normalized activity (Mean)): 103% | remaining activity at 31.25 µM ([1]; Figure 5a, fragment concentration 31.25 µM, read-out: Normalized activity (Mean)): 92.9% | remaining activity at 125 µM ([1]; Figure 5a, fragment concentration 125 µM, read-out: Normalized activity (Mean)): 97.7% | remaining activity at 500 µM ([1]; Figure 5a, fragment concentration 500 µM, read-out: Normalized activity (Mean)): 89.5% | remaining activity at 0.12 µM ([1]; MMP-2, concentration 0.12 µM, read-out: Mean (MMP-2, Supplementary fig 16)): 112% | remaining activity at 0.49 µM ([1]; MMP-2, concentration 0.49 µM, read-out: Mean (MMP-2, Supplementary fig 16)): 97.4% | remaining activity at 1.95 µM [1, 3]: 96.2% | remaining activity at 7.81 µM ([1]; MMP-2, concentration 7.81 µM, read-out: Mean (MMP-2, Supplementary fig 16)): 103% | remaining activity at 31.25 µM ([1]; MMP-2, concentration 31.25 µM, read-out: Mean (MMP-2, Supplementary fig 16)): 92.9% | remaining activity at 125 µM ([1]; MMP-2, concentration 125.00 µM, read-out: Mean (MMP-2, Supplementary fig 16)): 97.7% | remaining activity at 500 µM ([1]; MMP-2, concentration 500.00 µM, read-out: Mean (MMP-2, Supplementary fig 16)): 89.5% | remaining activity at 0.12 µM ([1]; MMP-2, concentration 0.12 µM, read-out: Mean (MMP-2 dose-response, Supplementary fig 15)): 112% | remaining activity at 0.12 µM ([1]; MMP-2, concentration 0.12 µM, read-out: Mean (dose-response, Supplementary fig 17)): 112% | remaining activity at 0.49 µM ([1]; MMP-2, concentration 0.49 µM, read-out: Mean (MMP-2 dose-response, Supplementary fig 15)): 97.4% | remaining activity at 0.49 µM ([1]; MMP-2, concentration 0.49 µM, read-out: Mean (dose-response, Supplementary fig 17)): 97.4% | remaining activity at 1.95 µM [1, 4]: 96.2% | remaining activity at 1.95 µM [1, 5]: 96.2% | remaining activity at 7.81 µM ([1]; MMP-2, concentration 7.81 µM, read-out: Mean (MMP-2 dose-response, Supplementary fig 15)): 103% | remaining activity at 7.81 µM ([1]; MMP-2, concentration 7.81 µM, read-out: Mean (dose-response, Supplementary fig 17)): 103% | remaining activity at 31.25 µM ([1]; MMP-2, concentration 31.25 µM, read-out: Mean (MMP-2 dose-response, Supplementary fig 15)): 92.9% | remaining activity at 31.25 µM ([1]; MMP-2, concentration 31.25 µM, read-out: Mean (dose-response, Supplementary fig 17)): 92.9% | remaining activity at 125 µM ([1]; MMP-2, concentration 125.00 µM, read-out: Mean (MMP-2 dose-response, Supplementary fig 15)): 97.7% | remaining activity at 125 µM ([1]; MMP-2, concentration 125.00 µM, read-out: Mean (dose-response, Supplementary fig 17)): 97.7% | remaining activity at 500 µM ([1]; MMP-2, concentration 500.00 µM, read-out: Mean (MMP-2 dose-response, Supplementary fig 15)): 89.5% | remaining activity at 500 µM ([1]; MMP-2, concentration 500.00 µM, read-out: Mean (dose-response, Supplementary fig 17)): 89.5% | inhibitory effect ([1]; in words): No inhibitory effects could be measured; also recorded: did not exhibit meaningful activity | MMP9 SL-A Count [2, 6]: 1891 | MMP9 SL-C Enrichment Fold ([2]; enrichment fold of sub-library SL-C member, MMP-9 selection, Figure 4a source data): 4.359 | MMP9 SL-C Count ([2]; sequence count of sub-library SL-C member, MMP-9 selection, Figure 4a source data): 10836 | MMP9 SL-A Enrichment Fold [2, 6]: 1.691
